Assay results published in patent US6159746A, “Solid phase immunoassay to detect inhibitors of proteolytic enzymes” (Gruppo Lepetit S.p.A., priority 1994, dated 2000).
Read-outs that look alike come from different tables or passages of the source. Square brackets hold non-standard residues; d marks the D form. Peptide text beside a SMILES is read from it. * marks the point of attachment. Sta = CC(C)C[C@H](N)[C@@H](O)CC(=O)O; Isovaleryl = CC(C)CC(=O)*

Key:
Type in all cases: biochemical
[1] = test system: Trypsin; test: Inhibition of trypsin, solid phase tubulin immunoassay (YL 1/2 antibody), Table I; conditions: trypsin 0.25 μg/ml, 20 mM TRIS pH 7.4, 2 hours at 37° C.; inhibitor 0.01 to 10 μg/ml
Protocol: (§1) Covalent linkage of tubulin to the support
(§2) 0.150 ml of a freshly made phosfate buffered saline (PBS) solution (pH=7.3) containing 0.03 mg of bis(sulfo-succinidimyl)suberate (BS3, Pierce, Rockford, Ill.) are dispensed into each well of a cova-link 96 wells plate (Nunc). The solution is left in the wells at room temperature for 90 minutes, afterwards the wells are washed three times with PBS solution.
(§3) Afterwards, 0,150 ml of a PBS solution containing 5% glycine (v/v) and 0.75 μg of tubulin obtained according to Example 1 is added to each well. After 90 minutes at room temperature, the solution is removed and 0.3 ml of a 5% glycine PBS solution are added. After about 2 hours, the wells are washed with fresh PBS solution.
(§4) Determination of the anti-proteolytic activity
(§5) 0.15 ml of a solution containing a proteolytic activity and a known inhibitor (concentration from 0.01 to 10 μg/ml) are added to the wells treated according to Example 2 or Example 2a and incubated for 2 hours at 37° C.
(§6) The employed proteolytic enzymes are:
(§7) Serine class: trypsin (0.25 μg/ml), subtilisin (0.25 μg/ml), elastase (0.5 μg/ml) and cathepsin G (5 μg/ml), in a 20 mM solution of Tris-hydroxymethyl-aminomethanchloride (TRIS) (pH=7.4);
(§8) Table I reports the concentration of these inhibitors which determines a 50% inhibition of the above proteases.
(§9) After three rapid washing with PBS solution (pH=7.3), the inhibitory activity is determined as follows:
(§10) A YL 1/2 antibody solution (Amersham) diluted 1:1000 in PBS buffer is added to each well and incubated for 1 hour at room temperature. After three rapid washing with PBS solution, an anti-rat peroxydated antibody solution (Amersham) diluted 1:1000 in PBS buffer is added to each well and incubated for 1 hour at room temperature. After 10-15 minutes, the colour is developed with a 0.5 M citric acid solution (pH=5.5) containing 1 mg/ml of o-phenylendiamine. After 5-10 minutes, the reaction is stopped with H2 SO4 4 M. The colour is detected on a Titertek Multiscan MCC340-HK spectrophotometer reading the absorbance at 492 nm.

[2] = test system: Subtilisin; test: Inhibition of subtilisin, solid phase tubulin immunoassay, Table I; conditions: subtilisin 0.25 μg/ml, 20 mM TRIS pH 7.4, 2 hours at 37° C.; inhibitor 0.01 to 10 μg/ml
Protocol: as §1, §2, §3, §4, §5, §6, §7, §8, §9, §10

[3] = target: Elastase; test: Inhibition of elastase, solid phase tubulin immunoassay, Table I; conditions: elastase 0.5 μg/ml, 20 mM TRIS pH 7.4, 2 hours at 37° C.; inhibitor 0.01 to 10 μg/ml
Protocol: as §1, §2, §3, §4, §5, §6, §7, §8, §9, §10

[4] = target: T1, Cathepsin G (Homo sapiens, UniProt P08311); test: Inhibition of cathepsin G, solid phase tubulin immunoassay, Table I
T1 sequence (P08311 21-255): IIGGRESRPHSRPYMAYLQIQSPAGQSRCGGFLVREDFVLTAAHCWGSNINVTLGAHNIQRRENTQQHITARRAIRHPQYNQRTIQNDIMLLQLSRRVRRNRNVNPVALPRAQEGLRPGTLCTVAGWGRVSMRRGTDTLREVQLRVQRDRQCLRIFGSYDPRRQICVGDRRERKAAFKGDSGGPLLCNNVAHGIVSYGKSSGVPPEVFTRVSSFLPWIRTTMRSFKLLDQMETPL
Protocol: as §1, §2, §3, §4, §5, §6, §7, §8, §9, §10

[5] = target: Pepsin (Sus scrofa, UniProt P00791); test: Inhibition of pepsin, solid phase tubulin immunoassay, Table I
Protocol: as §1, §2, §3, §4, §5, §6
Aspartic class: pepsin (5 μg/ml), cathepsin D (5 μg/ml), renin (5 μg/ml) and Hiv-1 protease (5 μg/ml), in a 50 mM acetate buffer solution (pH=5.5) containing 0.01% Tween 20 (Pierce);
as §9, §10

[6] = target: Cathepsin D (Homo sapiens, UniProt P07339); test: Inhibition of cathepsin D, solid phase tubulin immunoassay, Table I
Protocol: as §1, §2, §3, §4
(§11) 0.15 ml of a solution containing a proteolytic activity and a known inhibitor (concentration from 0.01 to 10 μg/ml) are added to the wells treated according to Example 2 or Example 2a and incubated for 2 hours at 37° C. […]
as §9
(§12) A YL 1/2 antibody solution (Amersham) diluted 1:1000 in PBS buffer is added to each well and incubated for 1 hour at room temperature. […] After 5-10 minutes, the reaction is stopped with H2 SO4 4 M. The colour is detected on a Titertek Multiscan MCC340-HK spectrophotometer reading the absorbance at 492 nm.

[7] = target: T2, Renin (Homo sapiens, UniProt P00797); test: Inhibition of renin, solid phase tubulin immunoassay, Table I
T2 sequence (P00797 67-406): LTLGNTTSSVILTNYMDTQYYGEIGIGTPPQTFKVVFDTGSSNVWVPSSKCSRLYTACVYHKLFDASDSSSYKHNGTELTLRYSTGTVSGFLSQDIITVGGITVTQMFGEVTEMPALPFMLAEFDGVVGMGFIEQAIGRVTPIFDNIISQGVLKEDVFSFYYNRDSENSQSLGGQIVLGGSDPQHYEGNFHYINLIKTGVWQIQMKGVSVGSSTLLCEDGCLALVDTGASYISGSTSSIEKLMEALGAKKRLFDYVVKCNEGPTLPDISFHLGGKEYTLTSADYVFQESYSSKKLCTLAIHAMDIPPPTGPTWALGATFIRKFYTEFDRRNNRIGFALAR
Protocol: as §1, §2, §3, §4, §11, §9, §12

[8] = target: T3, Hiv-1 protease (Human immunodeficiency virus type 1 group M subtype B, UniProt P04585); test: Inhibition of Hiv-1 protease, solid phase tubulin immunoassay, Table I
T3 construct: Hiv-1 protease
Protocol: as §1, §2, §3, §4, §11, §9, §12

[9] = target: T4, Papain (Carica papaya, UniProt P00784); test: Inhibition of papain, solid phase tubulin immunoassay, Table I; conditions: papain 0.25 μg/ml, 50 mM acetate pH 5.5, 5 mM cysteine, 2 hours at 37° C.; inhibitor 0.01 to 10 μg/ml
T4 sequence (P00784 whole entry, looked up): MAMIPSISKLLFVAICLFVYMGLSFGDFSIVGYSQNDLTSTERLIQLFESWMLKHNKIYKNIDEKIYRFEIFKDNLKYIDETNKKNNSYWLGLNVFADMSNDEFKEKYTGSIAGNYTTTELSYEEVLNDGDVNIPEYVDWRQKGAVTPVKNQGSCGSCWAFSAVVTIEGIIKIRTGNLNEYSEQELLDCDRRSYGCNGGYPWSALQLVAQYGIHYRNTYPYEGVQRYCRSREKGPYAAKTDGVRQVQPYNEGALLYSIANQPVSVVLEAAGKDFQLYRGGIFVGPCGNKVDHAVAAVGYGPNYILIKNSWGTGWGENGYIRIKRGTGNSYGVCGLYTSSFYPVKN
Protocol: as §1, §2, §3, §4, §5, §6
(§13) Cysteine class: papain (0.25 μg/ml) and cathepsin B (10 μg/ml) in a 50 mM acetate buffer solution (pH=5.5) containing 5 mM cysteine.
as §8, §9, §10

[10] = target: Cathepsin B (Homo sapiens, UniProt P07858); test: Inhibition of cathepsin B, solid phase tubulin immunoassay, Table I
Protocol: as §1, §2, §3, §4, §11, §9, §12

[11] = test system: proteases of the serine class; test: Specificity for protease classes, solid phase tubulin immunoassay; conditions: in words
Protocol: (§14) As mentioned above, the first step of the present assay is the contact of the supported tubulin or tubulin-like peptide with a solution containing a proteolytic activity as above described. By contacting solutions containing different proteolytic activities and a same inhibitor substance, it is possible to determine both the specificity of said inhibitor against the selected protease and the percentage of inhibition.
as §4, §5, §6
Serine class: trypsin (0.25 μg/ml), subtilisin (0.25 μg/ml), elastase (0.5 μg/ml) and cathepsin G (5 μg/ml), in a 20 mM solution of Tris-hydroxymethyl-aminomethanchloride (TRIS) (pH=7.4); […]
as §9, §12

[12] = target: Papain (Carica papaya, UniProt P00784); test: Inhibition of papain, solid phase tubulin immunoassay, Table I; conditions: papain 0.25 μg/ml, 50 mM acetate pH 5.5, 5 mM cysteine, 2 hours at 37° C.; inhibitor 0.01 to 10 μg/ml; read-out: Concentration of inhibitor in the proteolytic solution which determines the 50% inhibition of the protease (converted)
Protocol: as §1, §2, §3, §4, §5, §6, §13, §8, §9, §10

[13] = test system: proteases of the aspartic class; test: Specificity for protease classes, solid phase tubulin immunoassay; conditions: in words
Protocol: as §14, §4, §5, §6
Aspartic class: pepsin (5 μg/ml), cathepsin D (5 μg/ml), renin (5 μg/ml) and Hiv-1 protease (5 μg/ml), in a 50 mM acetate buffer solution (pH=5.5) containing 0.01% Tween 20 (Pierce); […]
as §9, §12

[14] = test system: proteases of the cysteine class; test: as above; conditions: in words
Protocol: as §14, §4, §5, §6, §13, §8, §9, §12

Sequence of Pepsin (P00791 60-385): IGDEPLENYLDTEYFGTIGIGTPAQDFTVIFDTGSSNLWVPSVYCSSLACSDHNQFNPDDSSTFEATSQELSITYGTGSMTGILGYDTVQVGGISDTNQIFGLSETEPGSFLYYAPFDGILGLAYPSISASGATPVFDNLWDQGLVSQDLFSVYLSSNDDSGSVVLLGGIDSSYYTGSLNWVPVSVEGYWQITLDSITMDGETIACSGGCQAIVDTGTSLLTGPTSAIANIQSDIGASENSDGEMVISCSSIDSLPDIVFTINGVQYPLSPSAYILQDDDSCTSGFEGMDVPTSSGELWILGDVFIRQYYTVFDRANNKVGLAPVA
Sequence of Cathepsin D (P07339 65-412, species assumed): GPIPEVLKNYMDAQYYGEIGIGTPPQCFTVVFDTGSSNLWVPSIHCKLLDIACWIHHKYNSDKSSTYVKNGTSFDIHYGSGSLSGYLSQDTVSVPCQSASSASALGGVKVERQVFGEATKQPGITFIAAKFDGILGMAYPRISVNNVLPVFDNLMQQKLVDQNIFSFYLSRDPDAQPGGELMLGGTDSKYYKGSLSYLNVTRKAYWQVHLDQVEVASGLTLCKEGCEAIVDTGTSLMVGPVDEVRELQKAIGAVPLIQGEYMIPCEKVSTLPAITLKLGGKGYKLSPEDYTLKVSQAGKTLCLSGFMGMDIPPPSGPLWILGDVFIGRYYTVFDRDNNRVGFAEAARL

Molecule: α-anti trypsin: inhibitor of the serine class
- Concentration of inhibitor in the proteolytic solution which determines the 50% inhibition of the protease [1]: 1.0 µg/mL
- Concentration of inhibitor in the proteolytic solution which determines the 50% inhibition of the protease [2]: 7.5 µg/mL
- Concentration of inhibitor in the proteolytic solution which determines the 50% inhibition of the protease [3]: 1.0 µg/mL
- Concentration of inhibitor in the proteolytic solution which determines the 50% inhibition of the protease ([4]; cathepsin G 5 μg/ml, 20 mM TRIS pH 7.4, 2 hours at 37° C., inhibitor 0.01 to 10 μg/ml): n.i. (no inhibition)
- Concentration of inhibitor in the proteolytic solution which determines the 50% inhibition of the protease ([5]; pepsin 5 μg/ml, 50 mM acetate pH 5.5, 0.01% Tween 20, 2 hours at 37° C., inhibitor 0.01 to 10 μg/ml): n.i. (no inhibition)
- Concentration of inhibitor in the proteolytic solution which determines the 50% inhibition of the protease ([6]; cathepsin D 5 μg/ml, 50 mM acetate pH 5.5, 0.01% Tween 20, 2 hours at 37° C., inhibitor 0.01 to 10 μg/ml): n.i. (no inhibition)
- Concentration of inhibitor in the proteolytic solution which determines the 50% inhibition of the protease ([7]; renin 5 μg/ml, 50 mM acetate pH 5.5, 0.01% Tween 20, 2 hours at 37° C., inhibitor 0.01 to 10 μg/ml): n.i. (no inhibition)
- Concentration of inhibitor in the proteolytic solution which determines the 50% inhibition of the protease ([8]; Hiv-1 protease 5 μg/ml, 50 mM acetate pH 5.5, 0.01% Tween 20, 2 hours at 37° C., inhibitor 0.01 to 10 μg/ml): n.i. (no inhibition)
- Concentration of inhibitor in the proteolytic solution which determines the 50% inhibition of the protease [9]: n.i. (no inhibition)
- Concentration of inhibitor in the proteolytic solution which determines the 50% inhibition of the protease ([10]; cathepsin B 10 μg/ml, 50 mM acetate pH 5.5, 5 mM cysteine, 2 hours at 37° C., inhibitor 0.01 to 10 μg/ml): n.i. (no inhibition)
- specific inhibition of proteases of the serine class [11]: specific inhibition

Molecule: CC(C)CC(=O)N[C@H](C(=O)N[C@H](C(=O)N[C@@H](CC(C)C)[C@@H](O)CC(=O)N[C@@H](C)C(=O)N[C@@H](CC(C)C)[C@@H](O)CC(=O)O)C(C)C)C(C)C [Pepstatin] (Isovaleryl-VV[Sta]A[Sta]-OH)
- Concentration of inhibitor in the proteolytic solution which determines the 50% inhibition of the protease [1]: n.i. (no inhibition)
- Concentration of inhibitor in the proteolytic solution which determines the 50% inhibition of the protease [2]: n.i. (no inhibition)
- Concentration of inhibitor in the proteolytic solution which determines the 50% inhibition of the protease [3]: n.i. (no inhibition)
- IC50 [4]: > 14.6 µM
- IC50 ([5]; 50% inhibition of pepsin, under the test conditions): ~0.02 µM
- IC50 [12]: > 14.6 µM
- specific inhibition of proteases of the aspartic class [13]: specific inhibitor for the proteases of the aspartic class

Molecule: CC(=O)N[C@@H](CC(C)C)C(=O)N[C@@H](CC(C)C)C(=O)N[C@H](C=O)CCCNC(=N)N [Leupeptin]
- Concentration of inhibitor in the proteolytic solution which determines the 50% inhibition of the protease [1]: n.i. (no inhibition)
- Concentration of inhibitor in the proteolytic solution which determines the 50% inhibition of the protease [2]: n.i. (no inhibition)
- Concentration of inhibitor in the proteolytic solution which determines the 50% inhibition of the protease [3]: n.i. (no inhibition)
- IC50 [4]: > 23.4 µM
- IC50 [5]: > 23.4 µM
- IC50 [6]: > 23.4 µM
- IC50 [7]: > 23.4 µM
- IC50 [8]: > 23.4 µM
- IC50 [12]: 0.117 µM
- IC50 [10]: 5.86 µM
- specific inhibition of proteases of the cysteine class [14]: specific inhibition
